Key:
Settings in all cases: in vivo
Mus musculus [1] = experiment: Biodistribution in adrenal gland of NSG mouse xenografted with human PC-3 tumor at 0.37 to 0.74 MBq, iv after 2 hrs by gamma counting analysis; assay type: ADME, organism-based
Mus musculus [2] = experiment: Biodistribution in adrenal gland of NSG mouse xenografted with human PC-3 tumor at 0.37 to 0.74 MBq, iv after 1 hr by gamma counting analysis; assay type: ADME, organism-based
Mus musculus [3] = experiment: Biodistribution in testis of NSG mouse xenografted with human PC-3 tumor at 0.37 to 0.74 MBq, iv after 0.5 hrs by gamma counting analysis; assay type: ADME, organism-based
Muscle tissue [4] = experiment: Biodistribution in muscle of NSG mouse xenografted with human PC-3 tumor at 0.37 to 0.74 MBq, iv after 2 hrs by gamma counting analysis; assay type: ADME, organism-based
Pancreas [5] = experiment: Biodistribution in pancreas of NSG mouse xenografted with human PC-3 tumor at 0.37 to 0.74 MBq, iv after 2 hrs by gamma counting analysis; assay type: ADME, organism-based
Tumour = experiment: Biodistribution in tumor of NSG mouse xenografted with human PC-3 tumor at 0.37 to 0.74 MBq, iv after 1 hr by gamma counting analysis in presence of BAY86-7548; assay type: ADME, organism-based, Neoplasm
Pancreas [6] = experiment: Biodistribution in pancreas of NSG mouse xenografted with human PC-3 tumor at 0.37 to 0.74 MBq, iv after 1 hr by gamma counting analysis; assay type: ADME, organism-based
Mus musculus [7] = experiment: Biodistribution in seminal gland of NSG mouse xenografted with human PC-3 tumor at 0.37 to 0.74 MBq, iv after 2 hrs by gamma counting analysis; assay type: ADME, organism-based
Heart [8] = experiment: Biodistribution in heart of NSG mouse xenografted with human PC-3 tumor at 0.37 to 0.74 MBq, iv after 1 hr by gamma counting analysis in presence of BAY86-7548; assay type: ADME, organism-based
Intestine [9] = experiment: Biodistribution in intestine of NSG mouse xenografted with human PC-3 tumor at 0.37 to 0.74 MBq, iv after 0.5 hrs by gamma counting analysis; assay type: ADME, organism-based
Intestine [10] = experiment: Biodistribution in intestine of NSG mouse xenografted with human PC-3 tumor at 0.37 to 0.74 MBq, iv after 1 hr by gamma counting analysis in presence of BAY86-7548; assay type: ADME, organism-based
Pancreas [11] = experiment: Biodistribution in pancreas of NSG mouse xenografted with human PC-3 tumor at 0.37 to 0.74 MBq, iv after 0.5 hrs by gamma counting analysis; assay type: ADME, organism-based
Bone = experiment: Biodistribution in bone of NSG mouse xenografted with human PC-3 tumor at 0.37 to 0.74 MBq, iv after 1 hr by gamma counting analysis; assay type: ADME, organism-based, Bone element
Liver [12] = experiment: Biodistribution in liver of NSG mouse xenografted with human PC-3 tumor at 0.37 to 0.74 MBq, iv after 2 hrs by gamma counting analysis; assay type: ADME, organism-based
Muscle tissue [13] = experiment: Biodistribution in muscle of NSG mouse xenografted with human PC-3 tumor at 0.37 to 0.74 MBq, iv after 1 hr by gamma counting analysis in presence of BAY86-7548; assay type: ADME, organism-based
Muscle tissue [14] = experiment: Biodistribution in muscle of NSG mouse xenografted with human PC-3 tumor at 0.37 to 0.74 MBq, iv after 1 hr by gamma counting analysis; assay type: ADME, organism-based
Blood [15] = experiment: Biodistribution in blood of NSG mouse xenografted with human PC-3 tumor at 0.37 to 0.74 MBq, iv after 0.5 hrs by gamma counting analysis; assay type: ADME, organism-based
[16] = Biodistribution in fat of NSG mouse xenografted with human PC-3 tumor at 0.37 to 0.74 MBq, iv after 2 hrs by gamma counting analysis; assay type: ADME, organism-based, Adipose tissue
Heart [17] = experiment: Biodistribution in heart of NSG mouse xenografted with human PC-3 tumor at 0.37 to 0.74 MBq, iv after 1 hr by gamma counting analysis; assay type: ADME, organism-based
Liver [18] = experiment: Biodistribution in liver of NSG mouse xenografted with human PC-3 tumor at 0.37 to 0.74 MBq, iv after 1 hr by gamma counting analysis; assay type: ADME, organism-based
Brain = experiment: Biodistribution in brain of NSG mouse xenografted with human PC-3 tumor at 0.37 to 0.74 MBq, iv after 1 hr by gamma counting analysis in presence of BAY86-7548; assay type: ADME, organism-based
Spleen = experiment: Biodistribution in spleen of NSG mouse xenografted with human PC-3 tumor at 0.37 to 0.74 MBq, iv after 1 hr by gamma counting analysis in presence of BAY86-7548; assay type: ADME, organism-based
Liver [19] = experiment: Biodistribution in liver of NSG mouse xenografted with human PC-3 tumor at 0.37 to 0.74 MBq, iv after 1 hr by gamma counting analysis in presence of BAY86-7548; assay type: ADME, organism-based
Intestine [20] = experiment: Biodistribution in intestine of NSG mouse xenografted with human PC-3 tumor at 0.37 to 0.74 MBq, iv after 2 hrs by gamma counting analysis; assay type: ADME, organism-based
Mus musculus [21] = experiment: Biodistribution in seminal gland of NSG mouse xenografted with human PC-3 tumor at 0.37 to 0.74 MBq, iv after 1 hr by gamma counting analysis in presence of BAY86-7548; assay type: ADME, organism-based
Mus musculus [22] = experiment: Biodistribution in testis of NSG mouse xenografted with human PC-3 tumor at 0.37 to 0.74 MBq, iv after 1 hr by gamma counting analysis in presence of BAY86-7548; assay type: ADME, organism-based
Blood [23] = experiment: Biodistribution in blood of NSG mouse xenografted with human PC-3 tumor at 0.37 to 0.74 MBq, iv after 1 hr by gamma counting analysis; assay type: ADME, organism-based

**Q.** With `CC(C)C[C@H](NC(=O)C[C@H](O)[C@H](CC(C)C)NC(=O)[C@H](Cc1cnc[nH]1)NC(=O)CNC(=O)[C@@H](NC(=O)[C@H](C)NC(=O)[C@H](Cc1c[nH]c2ccccc12)NC(=O)[C@H](CCC(N)=O)NC(=O)[C@@H](Cc1ccccc1)NC(=O)CN1CCC(NC(=O)Cn2cc(C[N+](C)(C)C[B-](F)(F)[17F])nn2)CC1)C(C)C)C(N)=O` as the compound, how does the Drug uptake (Mus musculus [1]) read?
**A.** 0.29 % ID/g

**Q.** What about the Drug uptake (Mus musculus [2]) of the same compound?
**A.** 0.5 % ID/g

**Q.** What about the Drug uptake (Mus musculus [3]) of the same compound?
**A.** 0.42 % ID/g

**Q.** What about the Drug uptake (Muscle tissue [4]) of the same compound?
**A.** 0.03 % ID/g

**Q.** What about the Drug uptake (Pancreas [5]) of the same compound?
**A.** 4.75 % ID/g

**Q.** And the Drug uptake (Tumour)?
**A.** 0.54 % ID/g

**Q.** What about the Drug uptake (Pancreas [6]) of the same compound?
**A.** 4.16 % ID/g

**Q.** And the Drug uptake (Mus musculus [7])?
**A.** 0.15 % ID/g

**Q.** And the Drug uptake (Heart [8])?
**A.** 0.18 % ID/g

**Q.** What about the Drug uptake (Intestine [9]) of the same compound?
**A.** 4.28 % ID/g

**Q.** And the Drug uptake (Intestine [10])?
**A.** 0.25 % ID/g

**Q.** What about the Drug uptake (Pancreas [11]) of the same compound?
**A.** 8.04 % ID/g

**Q.** What about the Drug uptake (Bone) of the same compound?
**A.** 0.28 % ID/g

**Q.** And the Drug uptake (Liver [12])?
**A.** 0.33 % ID/g

**Q.** And the Drug uptake (Muscle tissue [13])?
**A.** 0.14 % ID/g

**Q.** What about the Drug uptake (Muscle tissue [14]) of the same compound?
**A.** 0.07 % ID/g

**Q.** And the Drug uptake (Blood [15])?
**A.** 2.1 % ID/g

**Q.** And the Drug uptake [16]?
**A.** 0.05 % ID/g

**Q.** And the Drug uptake (Heart [17])?
**A.** 0.13 % ID/g

**Q.** And the Drug uptake (Liver [18])?
**A.** 0.78 % ID/g

**Q.** What about the Drug uptake (Brain) of the same compound?
**A.** 0.03 % ID/g

**Q.** What about the Drug uptake (Spleen) of the same compound?
**A.** 0.32 % ID/g

**Q.** And the Drug uptake (Liver [19])?
**A.** 1.05 % ID/g

**Q.** What about the Drug uptake (Intestine [20]) of the same compound?
**A.** 8.67 % ID/g

**Q.** What about the Drug uptake (Mus musculus [21]) of the same compound?
**A.** 0.12 % ID/g

**Q.** What about the Drug uptake (Mus musculus [22]) of the same compound?
**A.** 0.25 % ID/g

**Q.** What about the Drug uptake (Blood [23]) of the same compound?
**A.** 0.57 % ID/g

Source: ChEMBL document CHEMBL3399937, “(18)F-AmBF3-MJ9: a novel radiofluorinated bombesin derivative for prostate cancer imaging” (Bioorg Med Chem, 2015)
